Measured values as given in US10202376B2, “Heterocyclic compound” (Takeda Pharmaceutical Company Limited, priority 2014, dated 2019).

Target: T1, Human GRIN1 and human GRIN2B expressing HEK293 cells (Homo sapiens, UniProt Q13224)
T1 construct: host or cells: HEK293
Assay: NR2B Ca2+ flux assay
Type: cell-based
Conditions: 10 μM test compound, glutamic acid/glycine stimulated Fluo-4 fluorescence, FLIPR, read-out: inhibitory rate (@10 μM)
Method: Experimental Example 1 NR2B Ca^2+ Flux Assay
Human GRIN1 and human GRIN2B expressing HEK293 cells were purchased from ChanTest. The cells were cultured in a DMEM/F-12 (COSMO BIO, 10-092-CM) medium added with 10% FBS (fetal bovine serum, AusGene), 100 units/mL penicillin, 100 μg/mL streptomycin, 500 μg/mL neomycin, 100 μg/mL Zeocin, 5 μg/mL Blasticidin at 37° C., 5% CO2. The cells were detached from flask with trypsin the day before the assay, suspended in a seeding medium (DMEM (Invitrogen, 31053) added with 10% FBS, 100 units/mL penicillin, 100 μg/mL streptomycin) at 8×10^5 cells/mL, seeded by 25 μL per well in a 384-well plate (Falcon, 356663) at 20000 cells/well, and cultured overnight in an incubator. On the day of the assay, tetracycline (Wako Pure Chemical Industries, Ltd., 209-16561) was diluted with the seeding medium at 2 μg/mL, added at […] to the plate seeded with the cells, and cultured for 2 hr in an incubator. Thereafter, the medium was removed, and the cells were washed with 50 μL/well assay buffer (137 mM NaCl, 4 mM KCl, 1.8 mM CaCl2, 10 mM HEPES (pH 7.2), 10 mM Glucose, 0.1% BSA). Then, a loading buffer (assay buffer added with 2.5 uM Fluo-4AM, 2 mM Amaranth, 1 mM Tartrazine) was added at 25 μL/well, and loading was performed in the incubator for 30 min, and at room temperature for 15 min. A test compound (25 μL) was added, and the cells were stood for 15 min at room temperature. Using FLIPR (Molecular Devices), 25 μL of an assay buffer containing […], 30 μM glycine was added, and the fluorescence signal was measured every 3 seconds for 5 min. The inhibitory activity was calculated as a relative activity value that inhibits 100% of the cumulative value of the fluorescence value of a well added with a buffer free of glutamic acid, glycine, relative to the cumulative value of the fluorescence value of each well.

T1 sequence (Q13224 27-1484, other chains not shown): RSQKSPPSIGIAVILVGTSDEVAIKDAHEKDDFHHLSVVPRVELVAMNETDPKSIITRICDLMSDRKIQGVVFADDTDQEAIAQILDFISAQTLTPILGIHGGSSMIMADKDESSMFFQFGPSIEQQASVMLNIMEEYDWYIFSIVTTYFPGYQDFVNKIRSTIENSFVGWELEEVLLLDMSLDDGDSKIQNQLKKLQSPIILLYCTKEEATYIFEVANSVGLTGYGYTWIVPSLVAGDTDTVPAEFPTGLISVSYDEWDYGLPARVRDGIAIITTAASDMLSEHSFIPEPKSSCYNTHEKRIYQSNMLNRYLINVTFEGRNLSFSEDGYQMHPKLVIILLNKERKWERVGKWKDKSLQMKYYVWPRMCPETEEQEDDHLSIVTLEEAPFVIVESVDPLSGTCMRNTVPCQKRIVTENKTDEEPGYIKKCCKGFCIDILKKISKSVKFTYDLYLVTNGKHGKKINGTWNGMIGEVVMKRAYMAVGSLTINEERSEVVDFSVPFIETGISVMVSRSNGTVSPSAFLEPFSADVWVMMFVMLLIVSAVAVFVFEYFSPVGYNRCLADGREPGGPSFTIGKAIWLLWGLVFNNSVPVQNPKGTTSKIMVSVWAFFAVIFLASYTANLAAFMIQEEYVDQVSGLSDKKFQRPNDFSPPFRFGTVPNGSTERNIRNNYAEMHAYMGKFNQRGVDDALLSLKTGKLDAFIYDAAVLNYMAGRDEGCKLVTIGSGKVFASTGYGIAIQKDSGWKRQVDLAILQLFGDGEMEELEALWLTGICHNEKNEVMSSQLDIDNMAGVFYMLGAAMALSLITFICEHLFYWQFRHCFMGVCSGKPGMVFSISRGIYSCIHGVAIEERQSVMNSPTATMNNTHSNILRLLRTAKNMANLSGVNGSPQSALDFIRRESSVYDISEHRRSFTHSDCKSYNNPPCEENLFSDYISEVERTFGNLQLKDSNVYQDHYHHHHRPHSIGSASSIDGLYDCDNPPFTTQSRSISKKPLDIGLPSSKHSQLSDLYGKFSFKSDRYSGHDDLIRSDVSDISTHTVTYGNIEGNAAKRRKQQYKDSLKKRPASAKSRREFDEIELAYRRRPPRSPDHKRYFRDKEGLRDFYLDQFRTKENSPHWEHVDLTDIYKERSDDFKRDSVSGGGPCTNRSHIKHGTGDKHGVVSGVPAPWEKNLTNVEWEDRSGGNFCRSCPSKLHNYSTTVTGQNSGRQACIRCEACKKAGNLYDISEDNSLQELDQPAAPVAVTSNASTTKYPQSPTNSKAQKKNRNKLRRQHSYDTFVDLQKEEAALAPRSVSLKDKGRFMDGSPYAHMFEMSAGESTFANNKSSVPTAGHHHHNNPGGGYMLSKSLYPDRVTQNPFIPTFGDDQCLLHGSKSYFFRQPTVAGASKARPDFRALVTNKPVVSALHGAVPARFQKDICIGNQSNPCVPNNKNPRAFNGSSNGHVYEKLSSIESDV

inhibition at 10 µM | SMILES
56% | O=C(Cc1cccc2nccn12)Nc1ccc(F)c(C(F)F)c1 [Example 21, N-(3-(difluoromethyl)-4-fluorophenyl)-2-(imidazo[1,2-a]pyridin-5-yl)acetamide]
92% | COc1ccc(NC(=O)Cc2cccc3nccn23)cc1F [Example 8, N-(3-fluoro-4-methoxyphenyl)-2-(imidazo[1,2-a]pyridin-5-yl)acetamide]
90% | O=C(Cc1cccc2nccn12)Nc1ccc(Cl)c(F)c1 [Example 7, N-(4-chloro-3-fluorophenyl)-2-(imidazo[1,2-a]pyridin-5-yl)acetamide]
91% | Cc1cn2c(CC(=O)Nc3ccc(OC(F)(F)F)cc3)cccc2n1 [Example 85, 2-(2-methylimidazo[1,2-a]pyridin-5-yl)-N-(4-(trifluoromethoxy)-phenyl)acetamide]
92% | O=C(Cc1cccc2nccn12)Nc1ccc(Cl)cc1 [Example 33, N-(4-chlorophenyl)-2-(imidazo[1,2-a]pyridin-5-yl)acetamide]
93% | O=C(Cc1cccc2nccn12)Nc1ccc(OC(F)(F)F)cc1 [Example 5, 2-(imidazo[1,2-a]pyridin-5-yl)-N-(4-(trifluoromethoxy)phenyl)acetamide]
93% | O=C(Cc1cccc2nccn12)Nc1ccc(OC(F)F)c(F)c1 [Example 17, N-(4-(difluoromethoxy)-3-fluorophenyl)-2-(imidazo[1,2-a]pyridin-5-yl)acetamide]
93% | Cc1ccc2nccn2c1CC(=O)Nc1ccc(C(F)(F)F)cc1 [Example 87, 2-(6-methylimidazo[1,2-a]pyridin-5-yl)-N-(4-(trifluoromethyl)phenyl)-acetamide]
88% | O=C(Cc1cccc2nccn12)Nc1ccc(F)c(F)c1 [Example 29, N-(3,4-difluorophenyl)-2-(imidazo[1,2-a]pyridin-5-yl)acetamide]
90% | O=C(Cc1cccc2nccn12)Nc1ccc(C(F)(F)F)c(Cl)c1 [Example 39, N-(3-chloro-4-(trifluoromethyl)phenyl)-2-(imidazo[1,2-a]pyridin-5-yl)acetamide]
80% | O=C(Cc1cccc2nccn12)Nc1ccc(C(F)(F)F)cn1 [Example 36, 2-(imidazo[1,2-a]pyridin-5-yl)-N-(5-(trifluoromethyl)pyridin-2-yl)acetamide]
78% | N#Cc1ccc(NC(=O)Cc2cccc3nccn23)cc1 [Example 31, N-(4-cyanophenyl)-2-(imidazo[1,2-a]pyridin-5-yl)acetamide]
50% | Cc1cccc(NC(=O)Cc2cccc3nccn23)c1 [Example 30, 2-(imidazo[1,2-a]pyridin-5-yl)-N-(3-methylphenyl)acetamide]
57% | CCN(C(=O)Cc1cccc2nccn12)c1ccc(OC(F)(F)F)cc1 [Example 59, N-ethyl-2-(imidazo[1,2-a]pyridin-5-yl)-N-(4-(trifluoromethoxy)-phenyl)acetamide]
82% | O=C(Cc1cccc2nccn12)Nc1ccc(S(F)(F)(F)(F)F)cc1 [Example 62, 2-(imidazo[1,2-a]pyridin-5-yl)-N-(4-(pentafluoro-λ^6-sulfanyl)phenyl)-acetamide]
95% | CCc1ccc2nccn2c1CC(=O)Nc1ccc(C(F)(F)F)cc1 [Example 81, 2-(6-ethylimidazo[1,2-a]pyridin-5-yl)-N-(4-(trifluoromethyl)phenyl)-acetamide]
91% | COc1c(F)cc(NC(=O)Cc2cccc3nccn23)cc1F [Example 19, N-(3,5-difluoro-4-methoxyphenyl)-2-(imidazo[1,2-a]pyridin-5-yl)acetamide]
91% | O=C(Cc1cccc2nccn12)Nc1ccc(I)cc1 [Example 16, 2-(imidazo[1,2-a]pyridin-5-yl)-N-(4-iodophenyl)acetamide]
85% | O=C(Cc1cccc2nccn12)Nc1ccc(OC(F)(F)F)nc1 [Example 63, 2-(imidazo[1,2-a]pyridin-5-yl)-N-(6-(trifluoromethoxy)-pyridin-3-yl)acetamide]
91% | O=C(Cc1c(Cl)ccc2nccn12)Nc1ccc(OC(F)(F)F)cc1 [Example 91, 2-(6-chloroimidazo[1,2-a]pyridin-5-yl)-N-(4-(trifluoromethoxy)-phenyl)acetamide]

inhibition at 10 µM | SMILES
89% | CC(C(=O)Nc1ccc(C(F)(F)F)cc1)c1cccc2nccn12 (stereo not shown) [Example 93, 2-(imidazo[1,2-a]pyridin-5-yl)-N-(4-(trifluoromethyl)phenyl)-propanamide]
51% | Cc1cc(CC(=O)Nc2ccc(C(F)(F)F)cc2)n2ccnc2c1 [Example 71, 2-(7-methylimidazo(1,2-a]pyridin-5-yl)-N-(4-(trifluoromethyl)phenyl)-acetamide]
93% | O=C(Cc1cc(F)cc2nccn12)Nc1ccc(OC(F)(F)F)cc1 [Example 86, 2-(7-fluoroimidazo[1,2-a]pyridin-5-yl)-N-(4-(trifluoromethoxy)-phenyl)acetamide]
93% | O=C(Cc1cccc2nccn12)Nc1ccc(C2CC2)c(F)c1 [Example 12, N-(4-cyclopropyl-3-fluorophenyl)-2-(imidazo[1,2-a]pyridin-5-yl)acetamide]
62% | COc1ccc(NC(=O)Cc2cccc3nccn23)cn1 [Example 24, 2-(imidazo[1,2-a]pyridin-5-yl)-N-(6-methoxypyridin-3-yl)acetamide]
66% | O=C(Cc1cccc2nccn12)Nc1ccc(F)cc1F [Example 27, N-(2,4-difluorophenyl)-2-(imidazo[1,2-a]pyridin-5-yl)acetamide]
97% | CCc1ccc2nccn2c1CC(=O)Nc1ccc(OC(F)(F)F)cc1 [Example 78, 2-(6-ethylimidazo[1,2-a]pyridin-5-yl)-N-(4-(trifluoromethoxy)phenyl)acetamide]
94% | CC(C(=O)Nc1ccc(OC(F)(F)F)cc1)c1cccc2nccn12 (stereo not shown) [Example 84, 2-(imidazo[1,2-a]pyridin-5-yl)-N-(4-(trifluoromethoxy)-phenyl)propanamide]
83% | O=C(Cc1cccc2nccn12)Nc1cc2ccccc2s1 [Example 65, N-(1-benzothiophen-2-yl)-2-(imidazo[1,2-a]pyridin-5-yl)acetamide]
88% | O=C(Cc1cc(F)cc2nccn12)Nc1ccc(C(F)(F)F)cc1 [Example 90, 2-(7-fluoroimidazo[1,2-a]pyridin-5-yl)-N-(4-(trifluoromethyl)phenyl)-acetamide]
91% | Cc1ccc(NC(=O)Cc2cccc3nccn23)cc1F [Example 15, N-(3-fluoro-4-methylphenyl)-2-(imidazo[1,2-a]pyridin-5-yl)acetamide]
81% | O=C(Cc1cccc2nccn12)Nc1ccc(C(F)(F)F)cc1Cl [Example 37, N-(2-chloro-4-(trifluoromethyl)phenyl)-2-(imidazo[1,2-a]pyridin-5-yl)acetamide]
90% | O=C(Cc1cccc2nccn12)Nc1ccc(C(F)(F)F)cc1F [Example 43, N-(2-fluoro-4-(trifluoromethyl)phenyl)-2-(imidazo[1,2-a]pyridin-5-yl)acetamide]
74% | Cc1cnc2cccc(CC(=O)Nc3ccc(C(F)(F)F)cc3)n12 [Example 20, 2-(3-methylimidazo[1,2-a]pyridin-5-yl)-N-(4-(trifluoromethyl)phenyl)acetamide]
53% | O=C(Cc1cccc2nccn12)Nc1ccccc1 [Example 26, 2-(imidazo[1,2-a]pyridin-5-yl)-N-phenylacetamide]
95% | Cc1ccc2nccn2c1CC(=O)Nc1ccc(OC(F)(F)F)cc1 [Example 79, 2-(6-methylimidazo[1,2-a]pyridin-5-yl)-N-(4-(trifluoromethoxy)phenyl)acetamide]
91% | CCCc1ccc(NC(=O)Cc2cccc3nccn23)cc1 [Example 10, 2-(imidazo[1,2-a]pyridin-5-yl)-N-(4-propylphenyl)acetamide]
93% | O=C(Cc1cccc2nccn12)Nc1ccc(Br)c(F)c1 [Example 83, N-(4-bromo-3-fluorophenyl)-2-(imidazo[1,2-a]pyridin-5-yl)acetamide]
94% | O=C(Cc1cccc2nccn12)Nc1ccc(I)c(F)c1 [Example 82, N-(3-fluoro-4-iodophenyl)-2-(imidazo[1,2-a]pyridin-5-yl)acetamide]
91% | COc1ccc(NC(=O)Cc2cccc3nccn23)cc1 [Example 2, 2-(imidazo[1,2-a]pyridin-5-yl)-N-(4-methoxyphenyl)acetamide]
